Laboratory results from a melting point compilation (Tetko et al.; mined from patent text by program, amines drawn as free bases though some values may be those of a salt).

Row | melting point | SMILES
1 | 165 to 167 °C | CCc1nc2c(N)nc3cc(OCCNC(C)=O)ccc3c2n1CC1CCOCC1
2 | 198 to 199 °C | COc1ccc(C[C@@H](NC(=O)c2cccc3ccccc23)[C@@H](O)c2ccc(F)cc2)cc1 (racemic)
3 | 61 to 62 °C | Cc1cc(CCCOc2c(C)cc(-c3noc(C(F)(F)F)n3)cc2C)on1
4 | 249 °C | COC(=O)C1=C(C(=O)OC)c2c([nH]c3ccccc23)CC1
5 | 142 to 144 °C | CCCC(=O)c1cnc2ccc(COC(=O)c3ccccc3)cc2c1Nc1ccccc1C
6 | 133 °C | Cc1ccc2cc(-c3ccc4ccc5cccc6ccc3c4c56)ccc2n1
7 | 85 to 86 °C | COc1cccc(Oc2cccc(-c3cccc(C(=O)NCCC#N)c3)n2)c1
8 | 78 to 85 °C | COc1cc(C2CCN(C3COC3)CC2)ccc1Nc1ncc2ccc(-c3ccccc3OC)n2n1
9 | 124 to 126 °C | CNc1ccccc1C(O)c1ccccc1 (stereo unspecified)
10 | 75 to 77 °C | CS(=O)(=O)Oc1cc(NN)c(F)cc1Cl
11 | 253 to 255 °C | O=C(Cc1ccccc1)Nc1cnc2ccccc2c1O
12 | 39 to 40 °C | CC(C)CC(=O)c1ccc(Cl)cc1
13 | 186 to 187 °C | COc1cc2c(cc1OC)C1=C(C#N)SCC(=O)N1CC2
14 | 176 to 182 °C | CC(C)N=C(NC#N)Nc1cc(C(F)(F)F)cc(C(F)(F)F)c1
15 | 256 to 258 °C | CCN(CC)c1cccc(-c2ccc(C(=O)O)c(=O)[nH]2)c1
16 | 147 to 150 °C | Cc1ccc(-c2ccc(S(C)(=O)=O)c(F)c2)n1-c1ccc(-c2ccoc2)cc1
17 | 226 °C | C(=C\c1ccc2oc3ccc(/C=C/c4ccccc4)cc3c2c1)/c1ccccc1
18 | 228 to 229 °C | CCN(CC)CC(=O)Nc1cccc2c1C(=O)c1c(NC(=O)CN(CC)CC)cccc1C2=O
19 | 103 °C | O=C(NCCCC(NC(=O)c1ccccc1)C(O)C(F)(F)F)c1ccccc1 (stereo unspecified)
20 | 166 °C | CCOC(=O)C(C)O/N=C(\C(=O)O)c1csc(N)n1 (stereo unspecified)
21 | 165 to 167 °C | COc1ccc(CCCCc2ccc(OC)c(OC)c2OC)cc1OC
22 | 119 °C | O=C(O)Cc1ccc(CNC(=O)C2Cc3ccccc3N2S(=O)(=O)c2ccc(-c3ccc(F)cc3Cl)cc2)cc1 (stereo unspecified)
23 | 199 to 200 °C | CN(C)c1ccc(C(=O)c2ccc(O)cc2)cc1
24 | 261 to 262 °C | CC1(C)OC(=S)Nc2ccc(-c3ccc(C#N)[nH]3)cc21
25 | 143 °C | Cc1ccc2cccc(OCc3c(Cl)ccc(S(=O)(=O)N4CCCC4C(=O)NCc4ccccc4)c3Cl)c2n1 (stereo unspecified)

Row | melting point | SMILES
26 | 166 °C | COc1ccc(CN2C(=O)C(C)(c3ccc(F)cc3Cl)c3cc(Cl)ccc32)c(OC)c1 (stereo unspecified)
27 | 72 to 75 °C | CCCCCCC1=C(Br)C(CBr)(NCc2ccccc2)OC1=O (stereo unspecified)
28 | 149 to 151 °C | COc1cc2ncc(NC3CCCCC3)nc2cc1OC
29 | 110 to 111 °C | CCCc1c(OCCCCCCc2cc(O)c(O)cc2F)ccc(C(=O)O)c1O
30 | 127 to 128 °C | CN(C)Cc1cccc(OCCCNc2nc(N=Cc3ccncc3)nn2C)c1
31 | 160 to 162 °C | Clc1cccc2c1Nc1ccccc1N=C2N1CCN(Cc2ccc3c(c2)OCO3)CC1
32 | 106 to 109 °C | COc1ccc2c(c1)C(O)(CCNC(C)=O)CCC2 (stereo unspecified)
33 | 140 to 141 °C | CC(C)(C)c1cc(-c2nn(CC3COC(=O)O3)c3ncccc23)cc(C(C)(C)C)c1O (stereo unspecified)
34 | 120 to 124 °C | O=C(Cn1cc(-c2ccccc2)c(-c2ccccc2)n1)NCCN1CCCCC1
35 | 142 to 143 °C | COCc1cc(-n2cc(-c3ccc(-c4ccco4)cc3)c(C(F)(F)F)n2)ccc1S(C)(=O)=O
36 | 128 to 130 °C | O=Cc1cc(Cl)ccc1Oc1ccc(Cl)cc1[N+](=O)[O-]
37 | 150 to 151 °C | NC(=O)c1c(-c2ccc(Cl)cc2)csc1N
38 | 227 °C | O=Cc1c(Cl)[nH]c2ccccc12
39 | 187 to 193 °C | N#Cc1cccc(CN2C(=O)C3(COc4cc5c(cc43)CCO5)c3ccccc32)c1 (stereo unspecified)
40 | > 250 °C | O=c1[nH]c2cccc(OCCNCc3ccc(Cl)cc3)c2[nH]c1=O
41 | 200 to 201 °C | CC(=O)NC(Cc1csc2ccccc12)C(CCc1cc(C(F)(F)F)cc(C(F)(F)F)c1)=NO (stereo unspecified)
42 | 69 to 70 °C | CN(C)CCCn1c(-c2ccc(Br)cc2)cc2c1CCCCC2
43 | 140 to 142 °C | C=CCNc1nc(C)ccc1C(=O)OC
44 | 100 to 102 °C | CCCCCN(C(=O)Oc1ccc(C(=O)O)cc1)c1ccc2c(c1)C(C)(C)CCC2(C)C
45 | 105 to 107 °C | CCCCCCCCCCCCCCCCCCOC(=O)c1ccc(Cn2c(=S)sc3ccccc32)cc1
46 | > 250 °C | C=CCO[C@@H]1C[C@H]2[C@H](C(=O)O)[C@H]2[C@]1(N)C(=O)O
47 | 178 to 180 °C | CCCn1c(COCC)nc2c(N)nc3ccc(OCCNS(C)(=O)=O)cc3c21
48 | 234 to 235 °C | CCn1nc2c(N)nc3ccccc3c2c1CC(C)(C)N
49 | 103 to 104 °C | CC(C)COC(=O)NC1=NCC(c2ccccc2)N1C (stereo unspecified)
50 | 127 to 130 °C | Cc1ccccc1C(=O)CN1C(=O)C(NC(=O)Nc2cccc(CC(O)=S)c2)CN(C(=O)C(C)(C)C)c2ccccc21 (stereo unspecified)

Row | melting point | SMILES
51 | 148 to 150 °C | Cc1oc(-c2ccccc2)nc1CCOc1ccc(CN(O)C(N)=O)cc1
52 | 221 to 223 °C | COCc1c(OC)cc(Cc2cnc(N)nc2N)cc1OC
53 | 75 to 76.5 °C | CCOC(=O)c1cc(CC)sc1Nc1ccc(Cl)cc1[N+](=O)[O-]
54 | 169 to 171 °C | Nc1cc(C(=O)CCC(=O)O)ccc1Br
55 | 114 to 119 °C | COC(=O)c1csc2c(=O)cc(C3CCCCC3)oc12
56 | 71 °C | CC(C)(C#N)CCCCOc1cc(-c2ccccc2)cc(-c2ccccc2)n1
57 | 193 °C | OC1CSC(Oc2cncc(-c3ncccc3Cl)c2)C(O)C1O (stereo unspecified)
58 | 102 to 103 °C | CC(C(=O)N(C)C)n1nc(-c2ccccc2)c(Cl)c1Cl (stereo unspecified)
59 | 140 °C | COc1ccc(N2CCN(n3ccnc3SC)CC2)cc1
60 | 245 to 247 °C | COc1ccc(-c2ccc3nc(NC(=O)c4ccc(C(C)(C)C)cc4)cn3c2)cn1
61 | 68 to 74 °C | CCNC1=NS(=O)N=C1NCCSCc1ccc(CN(C)C)o1 (stereo unspecified)
62 | 101 °C | CCC1(CC)CC(c2ccc(F)cc2)=C(c2ccc(S(N)(=O)=O)cc2)C1
63 | 280 to 283 °C | CN(C)c1ccc2c(=O)c(-c3nnnn3C)cn(C)c2c1
64 | 266 to 267 °C | CCCCCCCCCCCC(=O)Nc1ccc2nc(S)[nH]c2c1
65 | 178 °C | O=C1Nc2ccc(Cl)cc2C1(NCCc1ccccn1)c1ccccc1Cl (stereo unspecified)
66 | 186 to 188 °C | COc1cc(NC(C)=O)c([N+](=O)[O-])cc1C(=O)O
67 | 66 °C | CC(C)(CNC(=O)COCC(=O)OCOC(=O)Cc1ccccc1Nc1c(Cl)cccc1Cl)SN=O
68 | 67 to 69 °C | OCCCc1cn(-c2ccc(F)cc2)c2ccc(Cl)cc12
69 | 140 °C | Nc1ncccc1OCC#CI
70 | 113 to 114 °C | Cn1c(Cl)c(Cl)c(C#N)c1Cl
71 | 199 to 200 °C | CC1(C)OC(=O)Nc2ccc(Br)cc21
72 | 110 to 113 °C | CS(=O)(=O)Cc1cccc(C(F)(F)F)c1[N+](=O)[O-]
73 | 120 °C | COC(=O)CCC(=O)c1ccc(CCNC(C)=O)cc1
74 | 128 to 129 °C | O=C1c2c(O)cccc2C(=CCc2ccccc2)c2cccc(O)c21
75 | 81 to 83 °C | CC(=O)OCCC(=C(c1ccccc1)c1ccccc1)c1ccccc1

Row | melting point | SMILES
76 | 120 °C | CC1(C)C(C(=O)O)C1(C)C
77 | 160 to 163 °C | O=S1N=C(NCCCN(Cc2ccc(F)cc2)c2ccccn2)C(NCc2ccncc2)=N1 (stereo unspecified)
78 | 245 to 248 °C | CCOC(=O)C=Cc1ccc(C=Cc2ccc(C=CC(=O)O)cc2)cc1
79 | 230 °C | O=C1CC(c2cccc(-n3ccnn3)c2)=Nc2ccc(-c3cccc(F)c3F)cc2N1
80 | 110 °C | c1ccc2c(c1)OCCc1c-2n(CCCCCCN2CCCCC2)c2ccccc12
81 | > 250 °C | COc1cc2[nH]cc(C(=O)Nc3cccnc3)c2cc1Br
82 | 190 to 192 °C | O=C(O)Cc1c(C(=O)c2ccc(Cl)cc2Cl)[nH]c2cc(Cl)ccc12
83 | 189 to 191 °C | O=C1OC(=O)c2cc3c(cc21)OCO3
84 | 68 to 69 °C | CCn1c(=O)c2c(ncn2CCCCC(C)=O)n(CC)c1=O
85 | 150 °C | CCOC(=O)c1ccccc1C(=O)c1cccc(NC(=O)c2ccn3c2CSC3c2cccnc2)c1 (stereo unspecified)
86 | 52 to 54 °C | CCCCCCCCCCCCCC(O)c1nc2ncccc2o1 (stereo unspecified)
87 | 167 to 169 °C | CC(C)(C)N(NC(=O)c1ccccc1)C(=O)Cc1ccccc1
88 | 75 °C | CCCCCC1CCC(c2ccc(-c3cc(F)c(C(F)(F)Oc4cc(F)c(C(F)(F)F)c(F)c4)c(F)c3)c(F)c2)OC1 (stereo unspecified)
89 | 85 to 86 °C | CCc1cc(Cc2cc(C)c(N)c(CC)c2)cc(C)c1N
90 | 107 to 108 °C | CCCCCS(=O)(=O)NC(=O)CCc1cc(OC(C)C)nn1Cc1ccc(F)cc1F
91 | 184 to 186 °C | COc1ccc(C(=O)Nc2ccccc2)cc1NCc1ccc(C)cc1
92 | 215 to 220 °C | O=C(NO)c1cnc(NS(=O)(=O)c2ccc(C(=O)Nc3ccc(Cl)c(-c4ccccn4)c3)c(Cl)c2)nc1
93 | 200 to 203 °C | COc1ccc(C)cc1NC(=O)Nc1ccc(N2CCN(C(=O)Nc3c(C)cccc3OC)CC2)cc1
94 | 101 °C | CCOC(=O)c1oc2ccc(CSC)c(O)c2c1C
95 | 208 to 211 °C | CC(C)C(S)C(=O)NC1(C(=O)NC(Cc2ccc(-c3ccccc3)nc2)C(=O)O)CCCC1 (stereo unspecified)
96 | 161 °C | CN(C)c1ncnc2c1c(-c1ccc([N+](=O)[O-])o1)nn2C
97 | 160 to 163 °C | O=C(O)c1cc(Cl)cc(I)c1O

Row | SMILES | melting point
98 | Clc1cc(OC[C@@H]2CCN2)cnc1Cl | 59 to 60 °C
99 | Cc1ncc2n1-c1ccc(Cl)cc1C(c1ccccc1F)N=C2 (stereo unspecified) | 180 to 181 °C
100 | COC(=O)C(c1ccccc1)n1cncc1C=O (stereo unspecified) | 106 to 109 °C
101 | O=C(CS(=O)(=O)C(c1ccc(Cl)cc1)c1ccc(Cl)cc1)c1ccccn1 | 120 to 121 °C
